Experiments:
[1] = system: airway-constriction reaction; experiment: Inhibitory effect on airway-constriction reaction (in vivo), modified Konzet-Lössler method, acetylcholine-elicited; details: Cavia porcellus, iv; test compound 100 mg/2 ml/kg in 1% CMC through esophageal cannula; acetylcholine 20 µg/kg i.v. at 15, 30, 60 and 120 minutes; anesthetized guinea pigs; read-out: Inhibitory rate (%) Acetylcholine
Experimental: (§1) A group of 6 male Hartley albino guinea pigs (250 to 350 g) was anesthetized with pentobarbital, and the tracheae, esophagi, carotid arteries and jugular veins thereof were cannulated. The experiment was performed by connecting the tracheotomic cannula to a respirator incorporated into a circuit of a bronchospasm transducer (modified Konzet-Lössler method), arresting the spontaneous respiration of each guinea pig with choline chloride succinate (1 mg/kg i.v.) and then practicing artificial ventilation, and an airway-constriction reaction was determined by using an overflow rate of ventilation as an index. Acetylcholine (20 µg/kg) or histamine (20 µg/kg) was intravenously administered upon elapsed time of 15, 30, 60 and 120 minutes after a test compound (100 mg/2 ml/kg) suspended in 1% CMC was administered through the esophageal cannula, thereby observing the airway-constriction reaction elicited. For the sake of comparison, theophylline (100 mg/2 ml/kg) commonly and widely used in the treatment for asthma was used. The inhibitory effect on the airway-constriction reaction was expressed by a value calculated as an inhibitory rate (%). It turns out that all the compounds according to the present invention have an excellent inhibitory effect on airway constriction.

[2] = system: airway-constriction reaction; experiment: Inhibitory effect on airway-constriction reaction (in vivo), modified Konzet-Lössler method, histamine-elicited; details: Cavia porcellus, iv; test compound 100 mg/2 ml/kg in 1% CMC through esophageal cannula; histamine 20 µg/kg i.v. at 15, 30, 60 and 120 minutes; anesthetized guinea pigs; read-out: Inhibitory rate (%) Histamine
Experimental: as §1

trachea [3] = experiment: Tracheodilative effect (in vitro), Magnus method, trachea strips contracted with carbachol; details: Cavia porcellus; relaxation of guinea pig trachea strips contracted with 1 x 10^-6 M carbachol; maximum relaxation by 10^-4 M isoproterenol = 100%; read-out: pIC50 value Carbachol (converted)
Experimental: (§2) With respect to Compound 2, Compound 5, Compound 6, Compound 7 and Compound 16, the tracheodilative effect useful in treatment and/or prevention of respiratory diseases such as asthma was investigated by the Magnus method. A male Hartley albino guinea pig (250 to 300 g) was blow on the head and exsanguinated to death to enucleate its trachea. Strip specimens were prepared from the trachea. Each of the specimens was suspended in a Magnus tube filled with a Krebs-Henseleit solution kept at 37°C with supply of a mixed gas (95% O2, 5% CO2). A static tension of 1.0 g was loaded to record an isometric tension. Each of test compounds was cumulatively administered to the specimens separately contracted with 1 x 10^-6 M carbachol and 3 x 10^-6 M histamine to investigate its relaxing effect. After the cumulative administration, 10^-4 M isoproterenol was administered to identify the maximum relaxing effect on the trachea specimen. The maximum relaxation was regarded as 100%, and a negative logarithmic value of the concentration of the test compound, at which the specimen was relaxed by 50%, was calculated out, thereby regarding it as a pIC50 value. […]

trachea [4] = experiment: Tracheodilative effect (in vitro), Magnus method, trachea strips contracted with histamine; details: Cavia porcellus; relaxation of guinea pig trachea strips contracted with 3 x 10^-6 M histamine; maximum relaxation by 10^-4 M isoproterenol = 100%; read-out: pIC50 value Histamine (converted)
Experimental: as §2

trachea [5] = experiment: Tracheodilative effect (in vitro), Magnus method, enucleated trachea contracted with LTD4; details: Cavia porcellus; relaxation of enucleated guinea pig trachea contracted with LTD4 3 x 10^-8 M; read-out: pIC50 value LTD4 (converted)
Experimental: as §2
The pIC50 values of the compounds according to the present invention on contraction by LTD4 (concentration: 3 x 10^-8 M) were determined by using the enucleated trachea in accordance with the Magnus method in the same manner as in Test Example 1. It turns out that the compounds according to the present invention are effective on the contraction by this agent.

Row | Compound | IC50 (trachea [3]) [µM] | IC50 (trachea [4]) [µM] | IC50 (trachea [5]) [µM] | inhibition in vivo at 100 mg/kg [1] [%] | inhibition in vivo at 100 mg/kg [2] [%]
1 | CCC(C)N1CCc2c(Cl)nc3c(C#N)cnn3c21 (stereo not shown) [Compound 4, 8-sec-butyl-5-chloro-3-cyano-6,7-dihydro-8H-pyrrolo[3,2-e]pyrazolo[1,5-a]pyrimidine] |  |  |  | 33.2 | 24.7
2 | CC(C)(C)N1CCc2c(Cl)nc3c(C#N)cnn3c21 [Compound 15, 8-tert-butyl-5-chloro-3-cyano-6,7-dihydro-8H-pyrrolo[3,2-e]pyrazolo[1,5-a]pyrimidine] |  |  |  | 36.5 | 25.8
3 | CCC(C)N1CCc2cnc3c(C#N)cnn3c21 (stereo not shown) [Compound 2, 8-sec-butyl-3-cyano-6,7-dihydro-8H-pyrrolo[3,2-e]pyrazolo[1,5-a]pyrimidine] | 19.1 | 6.31 |  | 50 | 52.2
4 | CC(C)(C)N1CCc2cnc3c(C#N)cnn3c21 [Compound 14, 8-tert-butyl-3-cyano-6,7-dihydro-8H-pyrrolo[3,2-e]pyrazolo[1,5-a]pyrimidine] |  |  |  | 40.4 | 8.7
5 | N#Cc1cnn2c3c(cnc12)CCN3C1CCCC1 [Compound 1, 3-cyano-8-cyclopentyl-6,7-dihydro-8H-pyrrolo[3,2-e]pyrazolo[1,5-a]pyrimidine] |  |  |  | 33.4 | 22.2
6 | N#Cc1cnn2c3c(c(Cl)nc12)CCN3C1CCCC1 [Compound 3, 5-chloro-3-cyano-8-cyclopentyl-6,7-dihydro-8H-pyrrolo[3,2-e]pyrazolo[1,5-a]pyrimidine] |  |  |  | 22.8 | 7.7
7 | N#Cc1cnn2c3c(c(N)nc12)CCN3C1CCCC1 [Compound 5, 5-amino-3-cyano-8-cyclopentyl-6,7-dihydro-8H-pyrrolo[3,2-e]pyrazolo[1,5-a]pyrimidine] | 18.6 | 12.6 | 4.07 | 32.1 | 52.9

Further lines, with some results ahead:

Row | IC50 (trachea [3]) [µM] | IC50 (trachea [4]) [µM] | IC50 (trachea [5]) [µM] | Compound | inhibition in vivo at 100 mg/kg [1] [%] | inhibition in vivo at 100 mg/kg [2] [%]
8 | 23.4 | 16.2 |  | CC(C)(C)N1CCc2c(N)nc3c(C#N)cnn3c21 [Compound 16, 5-amino-8-tert-butyl-3-cyano-6,7-dihydro-8H-pyrrolo[3,2-e]pyrazolo[1,5-a]pyrimidine] |  | 
9 | 22.4 | 16.2 | 11.2 | N#Cc1cnn2c3c(c(N)nc12)CCN3C1CCCCC1 [Compound 6, 5-amino-3-cyano-8-cyclohexyl-6,7-dihydro-8H-pyrrolo[3,2-e]pyrazolo[1,5-a]pyrimidine] |  | 
10 | 2950 | 977 | 112 | Cn1c(=O)c2[nH]cnc2n(C)c1=O [Theophylline, theophylline, reference compound] | 39.5 | 37.7
11 | 18.2 | 15.5 | 3.72 | CCC(C)N1CCc2c(N)nc3c(C#N)cnn3c21 (stereo not shown) [Compound 7, 5-amino-8-sec-butyl-3-cyano-6,7-dihydro-8H-pyrrolo[3,2-e]pyrazolo[1,5-a]pyrimidine] | 36.5 | 49.8

Reference: patent publication EP0976754B1, “REMEDIES/PREVENTIVES FOR RESPIRATORY DISEASES” (POLA CHEMICAL INDUSTRIES, INC., priority 1997, dated 1998)
